Laboratory results reported in US6420377B1, “Covalent conjugates of topoisomerase I and topoisomerase II inhibitors” (priority 1997, dated 2002).
Like-named read-outs stand apart in the source and are kept apart here.

Assays:
[1] = tested on: KB-CPT100; settings: relative to KB; cited from earlier work
[2] = tested on: KB oral carcinoma cell line; settings: KB growth inhibition; cited from earlier work
[3] = tested on: KB cells; assay: Cellular protein-DNA complex formation (potassium-SDS precipitation); format: cell-based; settings: one hour
Protocol: Stimulation of intracellular protein associated DNA breaks was measured using a standard assay method described in Y. Kashiwada et al., J. Pharm. Sci. 82:487 (1993). Briefly, KB cells were labeled overnight with tritiated thymidine (0.5 μCi/mL), chased for two hours and then treated in triplicate with test compounds at various concentrations. After one hour, samples were processed and protein-DNA complexes were measured as potassium-SDS precipitable radioactivity.

[4] = tested on: calf thymus DNA topoisomerase II; assay: In vitro topoisomerase-DNA cleavage assay, topoisomerase II; format: biochemical; settings: for cleavable complex formation with topoisomerase II: FIG. 1A; for topoisomerase II cleavable complex activity relative to unconjugated components: S-1 vs 3, 4a, S-2 vs 3, 4b
Description: (§1) Calf thymus DNA topoisomerases were purchased from TopoGen Inc., Columbus, Ohio. Tritium-labeled thymidine (60-90 ci/mmol) for labeling cellular DNA to measure protein-DNA complexes and αP^32-labeled deoxycytidine triphosphate (>3000 ci/mmol) were obtained from ICN Biochemicals Inc., Irvine, Calif. The latter radiochemical was used with a T4-DNA polymerase polymerase-labeling system from BRL Inc., Gaithersburg, Md., to prepare P^32-plasmid DNA for in vitro cleavage assays. Tissue culture reagents were purchased from Sigma Chemical Co., St. Louis, Mo., and Gibco-BRL Inc. All other chemicals were reagent grade.
(§2) The detailed method used to measure stimulation of cleavable complexes in vitro is described in K. Bastow et al., Planta Med. 59:195 (1993).. Briefly, incubated cleavage reactions containing one nanogram of P^32 end-labeled linearized PBR322 DNA, one unit of enzyme and test compound were divided equally for analysis. One portion was prepared for gel electrophoresis with subsequent autoradiography and protein-DNA complexes in the remaining sample were analyzed using the potassium-SDS precipitation method and scintillation spectrometry.

[5] = tested on: KB-7d; settings: relative to KB; cited from earlier work
[6] = tested on: KB cells; assay: Gel lysis assay for genomic DNA breaks; format: cell-based; settings: for reversal of genomic DNA fragmentation upon drug removal: additional hour in fresh media
Protocol: One million KB cells in 25cm^2 flasks were treated for three hours with test compound, the medium was discarded then cells were scraped into ice-cold PBS and harvested by centrifugation. Washed cell pellets were resuspended in eighty microliters of a 37° C. gel solution [1% (w/v) low-melting point agarose in PBS], and were cast in a mold and refrigerated to form 6×7×2 mm agarose plugs. Plugs of cells were incubated in lysis-digestion buffer (0.4M EDTA, 0.01 Tris (HCl, pH 8.0), 1% (w/v) N-lauryl-sarcosine and 100 μg/mL proteinase K) at 37° overnight or 50° for one hour. The treated plugs were equilibrated in TBE buffer and placed against a gel comb in a horizontal gel casting tray (BRL Inc., H4 system format). A 55° gel solution containing 0.8% (w/v) agarose in TBE was poured and allowed to gel. Electrophoresis was at 3.5 v/cm (measured between electrodes) for 16 hours at 4° without buffer re-circulation. The gel was stained with 1 μg/mL ethidium bromide in water, treated overnight at 25° C. with RN'ase (1 μg/mL), and then photographed under UV illumination. For the reversibility studies, treated cells were washed with PBS and incubated with fresh media for an additional hour before harvesting for plug preparation and gel analysis.

[7] = tested on: KB-7d; assay: Cytotoxicity measured as reduced plating efficiency, KB-7d cells; format: cell-based; settings: for IC50: KB7D, 3 h, read-out: Cytotoxicity Measured as Reduced Plating Efficiency IC50
Protocol: (§3) LC50 concentrations were determined by treating cells for three hours with different concentrations of compounds then replating cells to measure colony formation and plating efficiency as the percent of total cells forming colonies. Compounds were evaluated in three independent experiments. The plating efficiences of untreated cells varied between experiments with values ranging from 14-31% for KB, 31-56% for KB-7d, 16-38% for KB-VIN20c and 21-36% for KB-CPT100. A concentration of compound that reduced plating efficiency by fifty percent relative to control, the LC50, was determined graphically as stated in the preceding section.

[8] = tested on: KB oral carcinoma cell line; assay: Cell growth inhibition, KB cells; format: cell-based; settings: for IC50: Homo sapiens, KB
Protocol: (§4) The KB oral carcinoma cell line was provided by M. Fisher (Pharmacology, UNC- Chapel Hill). The isolation and properties of the etoposide-resistant sub-clone, KB-7d, and the camptothecin-resistant line, KB-CPT100, were reported in P. Ferguson et al., Cancer Res. 48:5956 (1988) and D. Beidler et al., Cancer Res. 56:345 (1996), and are discussed briefly hereinafter. The vincristine-resistant sub-clone, KB-VIN20c was isolated by selection in 20 nM vincristine and over-expresses the P-glycoprotein multidrug-resistant drug-efflux protein (unpublished results).
(§5) All cell types were propagated in RPMI-1640 medium supplemented with 5% (v/v) fetal calf serum and 100 μg/mL kanamycin at 37° in a humidified atmosphere of 5% CO2 and 95% air. Over the course of the experiments, doubling times of cells were 24±4 hours.
(§6) Fifty thousand cells were plated in 25 cm^2 flasks (Falcon, N.J., USA) and incubated overnight. The medium was supplemented with test compounds at various concentrations and cultures were incubated for 48-51 hours (for about two cell doublings) before cells were trypsinized and then counted using a hemacytometer. The number of treated cells which excluded 0.5% (v/v) trypan blue were expressed as a percentage of the growth measured in control cultures. Compounds were evaluated in at least two independent experiments and the combined results were analyzed as scatter plots with dose-responses being computer fitted by linear regression at the 95% confidence level using Graphpad Software., San Diego, Calif. The IC50 concentrations which inhibited cell growth by fifty percent relative to control were interpolated from graphed results.

[9] = tested on: KB-7d; assay: Cell growth inhibition, etoposide-resistant KB-7d cells; format: cell-based; settings: for IC50: KB7D, read-out: Cell Growth Inhibition IC50
Protocol: as §4, §5, §6

[10] = tested on: KB-VIN20c; assay: Cell growth inhibition, vincristine-resistant KB-VIN20c cells; format: cell-based; settings: for IC50: read-out: Cell Growth Inhibition IC50
Protocol: as §4, §5, §6

[11] = tested on: KB-VIN20c; assay: Cytotoxicity measured as reduced plating efficiency, KB-VIN20c cells; format: cell-based; settings: 3 h, read-out: Cytotoxicity Measured as Reduced Plating Efficiency IC50
Protocol: as §3

[12] = tested on: KB; assay: Cytotoxicity measured as reduced plating efficiency, KB cells; format: cell-based; settings: Homo sapiens, 3 h, read-out: Cytotoxicity Measured as Reduced Plating Efficiency IC50
Protocol: as §3

[13] = biological target: T1, calf thymus DNA topoisomerase I (Bos taurus, UniProt F1MN93); assay: In vitro topoisomerase-DNA cleavage assay, topoisomerase I; format: biochemical; settings: for stimulation of topoisomerase I cleavage activity, dose behaviour: higher test concentrations; for cleavable complex formation with topoisomerase I / topoisomerase I cleavable complex activity relative to unconjugated components: ten micromolar; for cleavable complex formation with topoisomerase I: FIG. 1A; for topoisomerase I cleavable complex activity relative to unconjugated components: S-1 vs 3, 4a, S-2 vs 3, 4b
T1 construct: Calf thymus DNA topoisomerases were purchased from TopoGen Inc., Columbus, Ohio; purchased TopoGen Inc., Columbus, Ohio; host or cells: calf thymus (tissue-derived enzyme)
T1 sequence (F1MN93 1-767): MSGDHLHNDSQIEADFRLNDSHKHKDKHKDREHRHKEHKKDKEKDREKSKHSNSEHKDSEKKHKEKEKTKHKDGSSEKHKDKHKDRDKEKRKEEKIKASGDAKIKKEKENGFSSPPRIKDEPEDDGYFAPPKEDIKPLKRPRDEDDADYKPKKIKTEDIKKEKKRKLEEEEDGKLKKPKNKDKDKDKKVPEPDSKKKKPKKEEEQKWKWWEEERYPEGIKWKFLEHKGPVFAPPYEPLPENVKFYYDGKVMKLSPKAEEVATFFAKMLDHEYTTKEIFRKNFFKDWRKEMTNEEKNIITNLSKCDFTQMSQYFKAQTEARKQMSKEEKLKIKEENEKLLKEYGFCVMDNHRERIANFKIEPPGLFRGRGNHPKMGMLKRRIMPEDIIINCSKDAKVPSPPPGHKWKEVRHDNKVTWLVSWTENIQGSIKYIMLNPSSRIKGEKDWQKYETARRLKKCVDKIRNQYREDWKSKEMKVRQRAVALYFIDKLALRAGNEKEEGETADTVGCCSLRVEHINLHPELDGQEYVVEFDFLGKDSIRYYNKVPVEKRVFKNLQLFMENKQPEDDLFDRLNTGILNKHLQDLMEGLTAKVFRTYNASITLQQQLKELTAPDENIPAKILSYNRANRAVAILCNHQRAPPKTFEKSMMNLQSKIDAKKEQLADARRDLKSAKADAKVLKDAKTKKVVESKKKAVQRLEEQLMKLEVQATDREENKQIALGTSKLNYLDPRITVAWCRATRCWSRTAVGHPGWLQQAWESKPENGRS
Description: as §1, §2

[14] = tested on: KB-CPT100; assay: Cell growth inhibition, camptothecin-resistant KB-CPT100 cells; format: cell-based; settings: for cross-resistance of KB-CPT100 cells, growth inhibition: relative to KB
Protocol: as §4, §5, §6

[15] = tested on: KB-CPT100; assay: Cytotoxicity measured as reduced plating efficiency, KB-CPT100 cells; format: cell-based; settings: KBCPT100, 3 h, read-out: Cytotoxicity Measured as Reduced Plating Efficiency IC50
Protocol: as §3

[16] = fifty-times the IC50 for KB growth inhibition (etoposide eight, 4b four, 3 0.4, S-2 0.8 micromolar), three hours
[17] = twenty-fold higher concentration (3 at sixteen micromolar), three hours
[18] = twenty-fold higher concentration

Structure (SMILES) | IC50 [2] | stimulation of in vitro topoisomerase II cleavable-complexes, dose behaviour [4] | stimulation of topoisomerase II-induced DNA cleavage over enzyme control ([4]; fifty micromolar) | stimulation of topoisomerase II-induced DNA cleavage over enzyme control ([4]; one micromolar) | stimulation of topoisomerase II-induced DNA cleavage over enzyme control ([4]; ten micromolar) | genomic DNA fragmentation [6, 16] | IC50 [7] | IC50 [11] | IC50 [12] | stimulation of topoisomerase I cleavage activity, dose behaviour [13] | genomic DNA fragmentation [6, 17] | reversal of genomic DNA fragmentation upon drug removal [6, 18] | cross-resistance of KB-CPT100 cells, growth inhibition [14] | cleavable complex formation with topoisomerase II ([4]; ten micromolar) | topoisomerase II cleavable complex activity relative to unconjugated components ([4]; ten micromolar) | cleavable complex formation with topoisomerase I [13] | topoisomerase I cleavable complex activity relative to unconjugated components [13] | also measured
CC[C@@]1(O)C(=O)OCc2c1cc1n(c2=O)Cc2cc3ccccc3nc2-1 [Compound C-2, camptothecin] | 0.0098 ± 0.0032 µM | – | – | – | – | – | – | – | – | – | – | – | – | – | – | – | – | resistance of KB-CPT100 cells to growth-inhibitory effect [1]: 32 fold
COc1cc([C@@H]2c3cc4c(cc3[C@@H](O[C@@H]3O[C@@H]5CO[C@@H](C)O[C@H]5[C@H](O)[C@H]3O)[C@H]3COC(=O)[C@H]23)OCO4)cc(OC)c1O [Compound C-1, etoposide, reference compound] | 0.16 ± 0.04 µM | act saturably | 12 fold | 1.5 fold | 3 fold | High molecular weight DNA fragments were detected | – | – | – | – | – | – | – | – | – | – | – | intracellular protein-DNA complex formation ([3]; one micromolar and lower): no measurable response; resistance of KB-7d cells [5]: 145 fold; reversal of genomic DNA fragmentation upon drug removal ([6]; fifty-times the IC50): integrity of the DNA was restored
CC[C@@]1(O)C(=O)OCc2c1cc1n(c2=O)Cc2c-1nc1ccccc1c2C=O [Compound 3, 7-formyl camptothecin, reference compound] | – | – | – | – | – | inactive | > 16 µM | 12 µM | 10 µM | not inhibited at higher test concentrations | marginal fragmentation | not affected by reversing treatment | about 58 fold | – | – | – | – | IC50 ([8]; read-out: estimated IC50, KB cell growth): 0.007 µM; IC50 ([8]; 48-51 hours, two numbers in brackets after the value, read-out: Cell Growth Inhibition IC50): 0.007 µM; IC50 ([9]; KB-7d, 48-51 hours, two numbers in brackets after the value): 0.009 µM; cross-resistance of KB-7d cells, growth inhibition ([9]; relative to KB): equally active; IC50 ([10]; XB-VIN20c (so in the source), 48-51 hours, two numbers in brackets after the value): 0.018 µM; cross-resistance of KB-VIN20c cells, growth inhibition ([10]; relative to KB): no more than 2 fold; IC50 ([14]; KBCPT100, KB-CPT100, 48-51 hours, two numbers in brackets after the value, read-out: Cell Growth Inhibition IC50): 0.575 µM
CC[C@@]1(O)C(=O)OCc2c1cc1n(c2=O)Cc2c-1nc1ccccc1c2/C=N/c1ccccc1N[C@@H]1c2cc3c(cc2[C@@H](c2cc(OC)c(O)c(OC)c2)[C@H]2C(=O)OC[C@@H]21)OCO3 [Compound S-2] | – | dose-inhibitory | only marginal stimulation | only marginal stimulation | ~4 fold | – | > 15 µM | 4.6 µM | 4 µM | not inhibited at higher test concentrations | high molecular mass genomic fragments were detected | only partially restored | only six-fold cross-resistant | induced cleavable complexes | reduced about two-fold | induced cleavable complexes | reduced about two-fold | cross-resistance of KB-7d cells to cytotoxic action [7]: appeared cross-resistant; activity at inhibiting KB cell growth relative to C-1 [8]: about ten-fold more active; IC50 ([8]; read-out: Cell Growth Inhibition IC50): 0.014 µM; IC50 [9]: 0.015 µM; IC50 [15]: 2 µM; IC50 [10]: 0.027 µM; intracellular protein-DNA complex formation, dose behaviour ([3]; high concentration (7.5-60 micromolar)): not dose-inhibitory at high concentration; genomic DNA fragmentation [6]: marginal DNA fragmentation; IC50 ([14]; KBCPT100, read-out: Cell Growth Inhibition IC50): 0.085 µM
CC[C@@]1(O)C(=O)OCc2c1cc1n(c2=O)Cc2c-1nc1ccccc1c2/C=N\c1ccc(N[C@@H]2c3cc4c(cc3[C@@H](c3cc(OC)c(O)c(OC)c3)[C@H]3C(=O)OC[C@@H]32)OCO4)cc1 [Compound S-1] | – | – | – | – | – | – | – | – | – | – | – | – | – | induced cleavable complexes | reduced about two-fold | induced cleavable complexes | reduced about two-fold | melting point: > 300 °C (dec.)
